Results as given in ChEMBL document CHEMBL1201861, “Genomics of Drug Sensitity in Cancer screening data, Wellcome Trust Sanger Institute”.
pIC50: −log10 of the molar value.

Experiments:
Experiment in all cases: cells
Conditions in all cases: Homo sapiens
TE-6 = type: functional, cell-based;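 note: growth inhibition of TE-6 cells, read out with a cell viability assay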
Description: SANGER: Inhibition of human TE-6 cell growth in a cell viability assay.

MMAC-SF = type: functional, cell-based;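 note: growth inhibition of human MMAC-SF cells, read out with a cell viability assay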
Description: SANGER: Inhibition of human MMAC-SF cell growth in a cell viability assay.

U-87 MG = type: functional, cell-based, U-87MG ATCC;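 note: growth inhibition of the cells measured with a viability assay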
Description: SANGER: Inhibition of human U-87-MG cell growth in a cell viability assay.

SK-N-FI = type: functional, cell-based;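 note: cell viability assay measuring growth inhibition of human SK-N-FI cells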
Description: SANGER: Inhibition of human SK-N-FI cell growth in a cell viability assay.

EW-16 = type: functional, cell-based;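 note: growth inhibition of human EW-16 cells, read out as cell viability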
Description: SANGER: Inhibition of human EW-16 cell growth in a cell viability assay.

DOHH-2 = type: functional, cell-based;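 note: growth inhibition of human DOHH-2 cells, read out with a cell viability assay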
Description: SANGER: Inhibition of human DOHH-2 cell growth in a cell viability assay.

SF-539 = type: functional, cell-based;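 note: Read-out is a cell viability assay, with IC50 reflecting inhibition of cell growth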
Description: SANGER: Inhibition of human SF539 cell growth in a cell viability assay.

Ramos-2G6-4C10 = type: functional, cell-based;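 note: growth inhibition of the cell line, measured by a cell viability read-out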
Description: SANGER: Inhibition of human Ramos-2G6-4C10 cell growth in a cell viability assay.

EW-1 = type: functional, cell-based
Description: SANGER: Inhibition of human EW-1 cell growth in a cell viability assay.

COLO-320-HSR = type: functional, cell-based;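 note: growth inhibition of COLO-320-HSR cells, determined with a cell viability assay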
Description: SANGER: Inhibition of human COLO-320-HSR cell growth in a cell viability assay.

HL-60 = type: functional, cell-based;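 note: growth inhibition of human HL-60 cells, read out with a cell viability assay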
Description: SANGER: Inhibition of human HL-60 cell growth in a cell viability assay.

TGBC24TKB = type: functional, cell-based;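 note: growth inhibition of human TGBC24TKB cells, read out with a cell viability assay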
Description: SANGER: Inhibition of human TGBC24TKB cell growth in a cell viability assay.

BB30-HNC = type: functional, cell-based;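 note: growth inhibition of the cultured cell line, read out by a cell viability assay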
Description: SANGER: Inhibition of human BB30-HNC cell growth in a cell viability assay.

KLE = type: functional, cell-based;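 note: growth inhibition of human KLE cells, read out with a cell viability assay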
Description: SANGER: Inhibition of human KLE cell growth in a cell viability assay.

NB10 = type: functional, cell-based;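 note: growth inhibition of NB10 cells, read out by a cell viability assay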
Description: SANGER: Inhibition of human NB10 cell growth in a cell viability assay.

L-428 = type: functional, cell-based
Description: SANGER: Inhibition of human L-428 cell growth in a cell viability assay.

HCC1187 = type: functional, cell-based;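 note: growth inhibition of HCC1187 cells, read out with a cell viability assay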
Description: SANGER: Inhibition of human HCC1187 cell growth in a cell viability assay.

NCI-H1304 = type: functional, cell-based;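 note: growth inhibition of the cancer cell line, measured in a cell viability assay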
Description: SANGER: Inhibition of human NCI-H1304 cell growth in a cell viability assay.

HT-144 = type: functional, cell-based
Description: SANGER: Inhibition of human HT-144 cell growth in a cell viability assay.

NB69 = type: functional, cell-based;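 note: growth inhibition of NB69 cells, determined by a cell viability assay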
Description: SANGER: Inhibition of human NB69 cell growth in a cell viability assay.

MZ1-PC = type: functional, cell-based;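 note: cell viability assay measuring growth inhibition of human MZ1-PC cells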
Description: SANGER: Inhibition of human MZ1-PC cell growth in a cell viability assay.

RKO = type: functional, cell-based;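 note: growth inhibition of human RKO cells, read out with a cell viability assay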
Description: SANGER: Inhibition of human RKO cell growth in a cell viability assay.

UACC-257 = type: functional, cell-based
Description: SANGER: Inhibition of human UACC-257 cell growth in a cell viability assay.

ATN-1 = type: functional, cell-based;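 note: growth inhibition of human ATN-1 cells, read out with a cell viability assay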
Description: SANGER: Inhibition of human ATN-1 cell growth in a cell viability assay.

A101D = type: functional, cell-based;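 note: growth inhibition of the cell line, measured with a viability assay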
Description: SANGER: Inhibition of human A101D cell growth in a cell viability assay.

LU-134-A = type: functional, cell-based
Description: SANGER: Inhibition of human LU-134-A cell growth in a cell viability assay.

L-363 = type: functional, cell-based
Description: SANGER: Inhibition of human L-363 cell growth in a cell viability assay.

NCI-H747 = type: functional, cell-based;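 note: growth inhibition of human NCI-H747 cells, read out by a cell viability assay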
Description: SANGER: Inhibition of human NCI-H747 cell growth in a cell viability assay.

OVCAR-4 = type: functional, cell-based;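 note: growth inhibition of human OVCAR-4 cells, measured with a cell viability assay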
Description: SANGER: Inhibition of human OVCAR-4 cell growth in a cell viability assay.

Becker = type: functional, cell-based;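 note: growth inhibition of Becker cells, read out with a cell viability assay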
Description: SANGER: Inhibition of human Becker cell growth in a cell viability assay.

EKVX = type: functional, cell-based;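 note: growth inhibition of human EKVX cells, read out with a cell viability assay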
Description: SANGER: Inhibition of human EKVX cell growth in a cell viability assay.

JVM-3 = type: functional, cell-based;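 note: growth inhibition of human JVM-3 cells, read out with a cell viability assay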
Description: SANGER: Inhibition of human JVM-3 cell growth in a cell viability assay.

ES4 = type: functional, cell-based;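 note: growth inhibition of human ES4 cells, read out by a cell viability assay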
Description: SANGER: Inhibition of human ES4 cell growth in a cell viability assay.

NCI-H526 = type: functional, cell-based;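 note: growth inhibition of the human NCI-H526 cell line, measured by a cell viability assay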
Description: SANGER: Inhibition of human NCI-H526 cell growth in a cell viability assay.

SK-MEL-1 = type: functional, cell-based;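 note: growth inhibition of human SK-MEL-1 cells, read out by a cell viability assay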
Description: SANGER: Inhibition of human SK-MEL-1 cell growth in a cell viability assay.

CAS-1 = type: functional, cell-based;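 note: growth inhibition of CAS-1 cells, measured with a cell viability assay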
Description: SANGER: Inhibition of human CAS-1 cell growth in a cell viability assay.

MZ2-MEL = type: functional, cell-based;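 note: growth inhibition of MZ2-MEL cells read out with a cell viability assay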
Description: SANGER: Inhibition of human MZ2-MEL cell growth in a cell viability assay.

A388 = type: functional, cell-based;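 note: growth inhibition of human A388 cells, read out with a cell viability assay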
Description: SANGER: Inhibition of human A388 cell growth in a cell viability assay.

LAMA-84 = type: functional, cell-based;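 note: growth inhibition of LAMA-84 cells, read out with a cell viability assay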
Description: SANGER: Inhibition of human LAMA-84 cell growth in a cell viability assay.

KP-N-YS = type: functional, cell-based;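 note: cell viability assay measuring inhibition of cell line growth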
Description: SANGER: Inhibition of human KP-N-YS cell growth in a cell viability assay.

SK-PN-DW = type: functional, cell-based;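 note: growth inhibition measured with a viability assay on these cells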
Description: SANGER: Inhibition of human SK-PN-DW cell growth in a cell viability assay.

HDLM-2 = type: functional, cell-based;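 note: cell viability assay measuring suppression of HDLM-2 proliferation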
Description: SANGER: Inhibition of human HDLM-2 cell growth in a cell viability assay.

NCI-H1395 = type: functional, cell-based;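 note: cell viability assay read-out quantifying reduced proliferation of human NCI-H1395 cells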
Description: SANGER: Inhibition of human NCI-H1395 cell growth in a cell viability assay.

Mo = type: functional, cell-based
Description: SANGER: Inhibition of human Mo-T cell growth in a cell viability assay.

TE-10 = type: functional, cell-based;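 note: growth inhibition of TE-10 cells, measured by a cell viability assay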
Description: SANGER: Inhibition of human TE-10 cell growth in a cell viability assay.

DEL = type: functional, cell-based;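 note: growth inhibition of the human DEL cell line, read out with a cell viability assay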
Description: SANGER: Inhibition of human DEL cell growth in a cell viability assay.

DMS-114 = type: functional, cell-based
NH-12 = type: functional, cell-based;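 note: growth inhibition of NH-12 cells, read out with a cell viability assay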
Description: SANGER: Inhibition of human NH-12 cell growth in a cell viability assay.

SJSA-1 = type: functional, cell-based;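 note: growth inhibition of human SJSA-1 cells, read out through a cell viability measurement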
Description: SANGER: Inhibition of human SJSA-1 cell growth in a cell viability assay.

MHH-NB-11 = type: functional, cell-based;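 note: growth inhibition of human MHH-NB-11 cells, read out by a cell viability assay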
Description: SANGER: Inhibition of human MHH-NB-11 cell growth in a cell viability assay.

MEG-01 = type: functional, cell-based;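 note: growth inhibition of MEG-01 cells, read out by a cell viability assay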
Description: SANGER: Inhibition of human MEG-01 cell growth in a cell viability assay.

MC116 = type: functional, cell-based;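 note: growth inhibition of MC116 cells, read out with a cell viability assay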
Description: SANGER: Inhibition of human MC116 cell growth in a cell viability assay.

GI-1 = type: functional, cell-based;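 note: growth inhibition of human GI-1 cells, measured with a cell viability readout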
Description: SANGER: Inhibition of human GI-1 cell growth in a cell viability assay.

MOLT-16 = type: functional, cell-based;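 note: growth inhibition of human MOLT-16 cells, read out with a cell viability assay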
Description: SANGER: Inhibition of human MOLT-16 cell growth in a cell viability assay.

SK-NEP-1 = type: functional, cell-based;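 note: growth inhibition of human SK-NEP-1 cells, read out by a cell viability assay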
Description: SANGER: Inhibition of human SK-NEP-1 cell growth in a cell viability assay.

MZ7-mel = type: functional, cell-based;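 note: growth inhibition of human MZ7-mel cells, measured by a cell viability assay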
Description: SANGER: Inhibition of human MZ7-mel cell growth in a cell viability assay.

NCI-H1581 = type: functional, cell-based;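 note: cell growth inhibition read out by a viability assay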
Description: SANGER: Inhibition of human NCI-H1581 cell growth in a cell viability assay.

IA-LM = type: functional, cell-based;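 note: cell viability assay measuring growth inhibition of human IA-LM cells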
Description: SANGER: Inhibition of human IA-LM cell growth in a cell viability assay.

EW-13 = type: functional, cell-based
Description: SANGER: Inhibition of human EW-13 cell growth in a cell viability assay.

GI-ME-N = type: functional, cell-based
Description: SANGER: Inhibition of human GI-ME-N cell growth in a cell viability assay.

ONS-76 = type: functional, cell-based
Description: SANGER: Inhibition of human ONS-76 cell growth in a cell viability assay.

NCI-H209 = type: functional, cell-based
Description: SANGER: Inhibition of human NCI-H209 cell growth in a cell viability assay.

KARPAS-45 = type: functional, cell-based
Description: SANGER: Inhibition of human KARPAS-45 cell growth in a cell viability assay.

SNU-5 = type: functional, cell-based
Description: SANGER: Inhibition of human NCI-SNU-5 cell growth in a cell viability assay.

EW-18 = type: functional, cell-based
Description: SANGER: Inhibition of human EW-18 cell growth in a cell viability assay.

O=c1cc(N2CCOCC2)oc2c(-c3cccc4c3sc3ccccc34)cccc12
pIC50 (TE-6): < 5.70 | pIC50 (MMAC-SF): < 5.70 | pIC50 (U-87 MG): < 5.70 | pIC50 (SK-N-FI): < 5.70 | pIC50 (EW-16): < 5.70 | pIC50 (DOHH-2): < 5.70 | pIC50 (SF-539): < 5.70 | pIC50 (Ramos-2G6-4C10): < 5.70 | pIC50 (EW-1): < 5.70 | pIC50 (COLO-320-HSR): < 5.70 | pIC50 (HL-60): 5.86 | pIC50 (TGBC24TKB): < 5.70 | pIC50 (BB30-HNC): < 5.70 | pIC50 (KLE): < 5.70 | pIC50 (NB10): < 5.70 | pIC50 (L-428): < 5.70 | pIC50 (HCC1187): < 5.70 | pIC50 (NCI-H1304): < 5.70 | pIC50 (HT-144): < 5.70 | pIC50 (NB69): < 5.70 | pIC50 (MZ1-PC): < 5.70 | pIC50 (RKO): < 5.70 | pIC50 (UACC-257): < 5.70 | pIC50 (ATN-1): < 5.70 | pIC50 (A101D): < 5.70 | pIC50 (LU-134-A): < 5.70 | pIC50 (L-363): < 5.70 | pIC50 (NCI-H747): < 5.70 | pIC50 (OVCAR-4): < 5.70 | pIC50 (Becker): < 5.70 | pIC50 (EKVX): < 5.70 | pIC50 (JVM-3): < 5.70 | pIC50 (ES4): < 5.70 | pIC50 (NCI-H526): 6.55 | pIC50 (SK-MEL-1): 5.75 | pIC50 (CAS-1): < 5.70 | pIC50 (MZ2-MEL): < 5.70 | pIC50 (A388): < 5.70 | pIC50 (LAMA-84): 6.01 | pIC50 (KP-N-YS): 5.94 | pIC50 (SK-PN-DW): < 5.70 | pIC50 (HDLM-2): 6.49 | pIC50 (NCI-H1395): < 5.70 | pIC50 (Mo): < 5.70 | pIC50 (TE-10): < 5.70 | pIC50 (DEL): < 5.70 | pIC50 (DMS-114): < 5.70 | pIC50 (NH-12): < 5.70 | pIC50 (SJSA-1): < 5.70 | pIC50 (MHH-NB-11): < 5.70 | pIC50 (MEG-01): < 5.70 | pIC50 (MC116): < 5.70 | pIC50 (GI-1): < 5.70 | pIC50 (MOLT-16): < 5.70 | pIC50 (SK-NEP-1): < 5.70 | pIC50 (MZ7-mel): < 5.70 | pIC50 (NCI-H1581): < 5.70 | pIC50 (IA-LM): < 5.70 | pIC50 (EW-13): < 5.70 | pIC50 (GI-ME-N): < 5.70 | pIC50 (ONS-76): < 5.70

CCCS(=O)(=O)Nc1ccc(F)c(C(=O)c2c[nH]c3ncc(Cl)cc23)c1F [PLX-4720]
pIC50 (NCI-H209): 5.79 | pIC50 (TE-6): < 5.00 | pIC50 (MMAC-SF): 6.16 | pIC50 (U-87 MG): < 5.00 | pIC50 (SK-N-FI): < 5.00 | pIC50 (EW-16): < 5.00 | pIC50 (DOHH-2): < 5.00 | pIC50 (SF-539): < 5.00 | pIC50 (Ramos-2G6-4C10): < 5.00 | pIC50 (EW-1): < 5.00 | pIC50 (COLO-320-HSR): < 5.00 | pIC50 (HL-60): < 5.00 | pIC50 (TGBC24TKB): < 5.00 | pIC50 (BB30-HNC): < 5.00 | pIC50 (KLE): < 5.00 | pIC50 (NB10): < 5.00 | pIC50 (L-428): < 5.00 | pIC50 (HCC1187): < 5.00 | pIC50 (NCI-H1304): < 5.00 | pIC50 (HT-144): 6.44 | pIC50 (NB69): < 5.00 | pIC50 (MZ1-PC): < 5.00 | pIC50 (RKO): < 5.00 | pIC50 (UACC-257): < 5.00 | pIC50 (ATN-1): < 5.00 | pIC50 (A101D): 6.49 | pIC50 (LU-134-A): < 5.00 | pIC50 (L-363): < 5.00 | pIC50 (KARPAS-45): 5.69 | pIC50 (NCI-H747): < 5.00 | pIC50 (OVCAR-4): < 5.00 | pIC50 (Becker): < 5.00 | pIC50 (EKVX): < 5.00 | pIC50 (JVM-3): 5.02 | pIC50 (SNU-5): 5.67 | pIC50 (ES4): < 5.00 | pIC50 (NCI-H526): < 5.00 | pIC50 (SK-MEL-1): < 5.00 | pIC50 (CAS-1): < 5.00 | pIC50 (MZ2-MEL): < 5.00 | pIC50 (EW-18): < 5.00 | pIC50 (A388): < 5.00 | pIC50 (LAMA-84): < 5.00 | pIC50 (KP-N-YS): < 5.00 | pIC50 (SK-PN-DW): < 5.00 | pIC50 (HDLM-2): < 5.00 | pIC50 (NCI-H1395): < 5.00 | pIC50 (Mo): < 5.00 | pIC50 (TE-10): < 5.00 | pIC50 (DEL): < 5.00 | pIC50 (DMS-114): < 5.00 | pIC50 (NH-12): < 5.00 | pIC50 (SJSA-1): < 5.00 | pIC50 (MHH-NB-11): < 5.00 | pIC50 (MEG-01): < 5.00 | pIC50 (MC116): < 5.00 | pIC50 (GI-1): < 5.00 | pIC50 (MOLT-16): < 5.00 | pIC50 (SK-NEP-1): < 5.00 | pIC50 (MZ7-mel): 5.94 | pIC50 (NCI-H1581): < 5.00 | pIC50 (IA-LM): < 5.00 | pIC50 (EW-13): < 5.00 | pIC50 (GI-ME-N): < 5.00 | pIC50 (ONS-76): < 5.00
